Measurements as given in patent US7001983B1, “Antipathogenic synthetic peptides and compositions comprising them” (priority 1997, dated 2006).
“And” between values parts separate entries of the source, which are not always exact repeats. Identical values can stand only once. Square brackets hold non-standard residues; d marks the D form. Peptide text beside a SMILES is read from it.

Legend:
[1] = system: Bacillus megaterium Bm11; format: cell-based; conditions: 100% inhibition of growth after 18–20 h
[2] = system: Bacillus subtilis ATCC 6051; format: cell-based; conditions: 100% inhibition of growth after 18–20 h
[3] = system: Acinetobacter calcoaceticus Ac11; format: cell-based; conditions: 100% inhibition of growth after 18–20 h
[4] = system: Escherichia coli D21; format: cell-based; conditions: for Minimal Inhibitory Concentration E. coli (D21): 100% inhibition of growth after 18–20 h
[5] = system: Micrococcus Iuteus ATCC 9341; assay: Antibacterial activity (MIC), growth inhibition in LB medium; format: cell-based, Micrococcus luteus; conditions: 100% inhibition of growth after 18–20 h
Experimental: (viii) Antibacterial activity of the peptides. The antibacterial activity of the diastereomers was examined in sterile 96-well plates (Nunc F96 microtiter plates) in a final volume of 100 μL as follows: Aliquots (50 μl) of a suspension containing bacteria at a concentration of 10^6 Colony-Forming Units (CFU)/ml LB (Lauria broth) medium were added to 50 μL of water or 66% pooled normal human serum in PBS, containing the peptide in 2-fold serial dilutions. Growth inhibition was determined by measuring the absorbance at 492 nm with a Microplate autoreader E1309 (Bio-tek Instruments), following incubation for 18–20 h at 37° C. […] The bacteria used were: Escherichia coli D21, Pseudomonas aeruginosa ATCC 27853, Acinetobacter calcoaceticus Ac11, Salmonella typhimurium LT2, Bacillus megaterium Bm11, Micrococcus Iuteus ATCC 9341, Bacillus subtilis ATCC 6051.

[6] = system: human red blood cells (hRBC); assay: Hemolysis of human red blood cells; format: cell-based; conditions: for % hemolysis at 50 μM peptide / % hemolysis at 100 μM: hRBC, 30 min at 37° C.
Experimental: (ix) Hemolysis of human red blood cells. The peptides were tested for their hemolytic activities against human red blood cells (hRBC). Fresh hRBC with EDTA were rinsed 3 times with PBS (35 mM phosphate buffer/0.15 M NaCl, pH 7.3) by centrifugation for 10 min at 800 g and resuspended in PBS. Peptides dissolved in PBS were then added to 50 μL of a solution of the stock hRBC in PBS to reach a final volume of 100 μL (final erythrocyte concentration, 5% v/v). The resulting suspension was incubated under agitation for 30 min at 37° C. The samples were then centrifuged at 800 g for 10 min. Release of hemoglobin was monitored by measuring the absorbance of the supernatant at 540 nm. Controls for zero hemolysis (blank) and 100% hemolysis consisted of hRBC suspended in PBS and Triton 1%, respectively.

[7] = system: Pseudomonas aeruginosa ATCC 27853; conditions: for Minimal Inhibitory Concentration P. aeruginosa (ATCC 27853): 100% inhibition of growth after 18–20 h
Experimental: (viii) Antibacterial activity of the peptides.
Antibacterial activity of the mixtures was determined as described in Experimental procedures, section (xii).

CC[C@H](C)[C@H](NC(=O)[C@H](CCCCN)NC(=O)[C@@H]1CCCN1C(=O)[C@@H](NC(=O)[C@H](CC(C)C)NC(=O)[C@H](C)NC(=O)[C@H](Cc1ccccc1)NC(=O)[C@H](Cc1ccccc1)NC(=O)CN)[C@@H](C)CC)C(=O)N[C@H](C(=O)N[C@@H](CO)C(=O)N[C@@H](CO)C(=O)N1CCC[C@H]1C(=O)N[C@@H](CC(C)C)C(=O)N[C@@H](Cc1ccccc1)C(=O)N[C@@H](CCCCN)C(=O)N[C@H](C(=O)N[C@H](CC(C)C)C(=O)N[C@H](CC(C)C)C(=O)N[C@@H](CO)C(=O)N[C@@H](C)C(=O)N[C@H](C(=O)NCC(=O)N[C@@H](CO)C(=O)N[C@@H](C)C(=O)N[C@@H](CC(C)C)C(=O)N[C@@H](CO)C(=O)N[C@@H](CO)C(=O)N[C@@H](CO)C(=O)NCC(=O)NCC(=O)N[C@@H](CCC(N)=O)C(=O)N[C@@H](CCC(=O)NCCN)C(=O)NCCN)C(C)C)[C@@H](C)O)[C@@H](C)CC [Peptide 14, [D]L^18L^19-TApar]
Minimal Inhibitory Concentration B. megaterium (Bm11) [1]: 0.6 µM
Minimal Inhibitory Concentration B. subtilis (ATCC 6051) [2]: 1.5 µM
Minimal Inhibitory Concentration A. calcoaceticus (Ac11) [3]: 1.5 µM and 2.5 µM
Minimal Inhibitory Concentration E. coli (D21) [4]: 3.5 µM
Minimal Inhibitory Concentration M. luteus (ATCC 9341) [5]: 2.5 µM
% hemolysis at 50 μM peptide [6]: 100%

CC(C)C[C@H](NC(=O)[C@H](CCCCN)NC(=O)[C@@H](CC(C)C)NC(=O)[C@@H](CC(C)C)NC(=O)[C@H](CCCCN)NC(=O)[C@@H](N)CCCCN)C(=O)N[C@@H](CCCCN)C(=O)N[C@H](CC(C)C)C(=O)N[C@@H](CCCCN)C(=O)N[C@H](CC(C)C)C(=O)N[C@@H](CCCCN)C(=O)N[C@@H](CCCCN)C(N)=O [Peptide 25, [D]-L^3,4,8,10-K7L5] (H-KK[dL][dL]KLK[dL]K[dL]KK-NH2; N-terminus assumed)
Minimal Inhibitory Concentration B. megaterium (Bm11) [1]: 1 µM
Minimal Inhibitory Concentration B. subtilis (ATCC 6051) [2]: 100 µM
Minimal Inhibitory Concentration A. calcoaceticus (Ac11) [3]: 200 µM
Minimal Inhibitory Concentration E. coli (D21) [4]: 80 µM
Minimal Inhibitory Concentration P. aeruginosa (ATCC 27853) [7]: >200 µM
% hemolysis at 100 μM [6]: 0%

CC[C@H](C)[C@H](NC(=O)[C@H](CCCCN)NC(=O)[C@H]1CCCN1C(=O)[C@@H](NC(=O)[C@H](CC(C)C)NC(=O)[C@H](C)NC(=O)[C@H](Cc1ccccc1)NC(=O)[C@H](Cc1ccccc1)NC(=O)CN)[C@@H](C)CC)C(=O)N[C@H](C(=O)N[C@@H](CO)C(=O)N[C@@H](CO)C(=O)N1CCC[C@H]1C(=O)N[C@@H](CC(C)C)C(=O)N[C@@H](Cc1ccccc1)C(=O)N[C@@H](CCCCN)C(=O)N[C@H](C(=O)N[C@H](CC(C)C)C(=O)N[C@H](CC(C)C)C(=O)N[C@@H](CO)C(=O)N[C@@H](C)C(=O)N[C@H](C(=O)NCCN)C(C)C)[C@@H](C)O)[C@@H](C)CC [Peptide 2, [D]P^7L^18L^19[1-22]-TApar]
Minimal Inhibitory Concentration B. megaterium (Bm11) [1]: 2.5 µM
Minimal Inhibitory Concentration A. calcoaceticus (Ac11) [3]: 12.5 µM
Minimal Inhibitory Concentration E. coli (D21) [4]: 12.5 µM
% hemolysis at 50 μM peptide [6]: 0%

CC[C@@H](C)[C@@H](NC(=O)[C@H](CC(C)C)NC(=O)[C@H](C)NC(=O)[C@@H]1CCCN1C(=O)[C@H](CC(C)C)NC(=O)CNC(=O)[C@@H](NC(=O)[C@@H](NC(=O)[C@H](CC(C)C)NC(=O)[C@H](NC(=O)[C@H](CCCCN)NC(=O)[C@H](CC(C)C)NC(=O)[C@H](NC(=O)[C@H](C)N)C(C)C)C(C)C)[C@@H](C)O)[C@@H](C)O)C(=O)N[C@@H](CO)C(=O)N[C@@H](Cc1c[nH]c2ccccc12)C(=O)N[C@H](C(=O)N[C@H](CCCCN)C(=O)N[C@@H](CCCNC(=N)N)C(=O)NCCN)[C@@H](C)CC [Peptide 21, [D]-V^5V^8I^17K^21-[4-22]-TAmel]
Minimal Inhibitory Concentration B. megaterium (Bm11) [1]: 1.2 µM
Minimal Inhibitory Concentration A. calcoaceticus (Ac11) [3]: 14 µM
Minimal Inhibitory Concentration E. coli (D21) [4]: 21 µM
Minimal Inhibitory Concentration M. luteus (ATCC 9341) [5]: 28 µM
% hemolysis at 50 μM peptide [6]: 0%

CC[C@H](C)[C@H](NC(=O)[C@H](CCCCN)NC(=O)[C@H]1CCCN1C(=O)[C@@H](NC(=O)[C@H](CC(C)C)NC(=O)[C@H](C)NC(=O)[C@H](Cc1ccccc1)NC(=O)[C@H](Cc1ccccc1)NC(=O)CNC(=O)[C@H](CCCCN)NC(=O)[C@@H](N)CCCCN)[C@@H](C)CC)C(=O)N[C@H](C(=O)N[C@@H](CO)C(=O)N[C@@H](CO)C(=O)N1CCC[C@H]1C(=O)N[C@@H](CC(C)C)C(=O)N[C@@H](Cc1ccccc1)C(=O)N[C@@H](CCCCN)C(=O)N[C@H](C(=O)N[C@H](CC(C)C)C(=O)N[C@H](CC(C)C)C(=O)N[C@@H](CO)C(=O)N[C@@H](C)C(=O)N[C@H](C(=O)NCCN)C(C)C)[C@@H](C)O)[C@@H](C)CC [Peptide 5, K^1K^2[D]P^7L^18L^19[1-22]-TApar]
Minimal Inhibitory Concentration B. megaterium (Bm11) [1]: 0.75 µM
Minimal Inhibitory Concentration A. calcoaceticus (Ac11) [3]: 3.5 µM
Minimal Inhibitory Concentration E. coli (D21) [4]: 3.5 µM
% hemolysis at 50 μM peptide [6]: 0%

CC(C)C[C@H](NC(=O)[C@H](CC(C)C)NC(=O)[C@@H](CC(C)C)NC(=O)[C@@H](CC(C)C)NC(=O)[C@H](CC(C)C)NC(=O)[C@@H](N)CCCCN)C(=O)N[C@@H](CCCCN)C(=O)N[C@H](CC(C)C)C(=O)N[C@@H](CC(C)C)C(=O)N[C@H](CC(C)C)C(=O)N[C@@H](CC(C)C)C(=O)N[C@@H](CCCCN)C(N)=O [Peptide 22, [D]-L^3,4,8,10-K3L9] (H-KL[dL][dL]LLK[dL]L[dL]LK-NH2)
Minimal Inhibitory Concentration B. megaterium (Bm11) [1]: 0.7 µM
Minimal Inhibitory Concentration B. subtilis (ATCC 6051) [2]: 1.1 µM
Minimal Inhibitory Concentration A. calcoaceticus (Ac11) [3]: 20 µM
Minimal Inhibitory Concentration E. coli (D21) [4]: 9 µM
Minimal Inhibitory Concentration P. aeruginosa (ATCC 27853) [7]: 125 µM
hemolytic activity in comparison to melittin (fold less) ([6]; hRBC dose response): > 60 fold
% hemolysis at 100 μM [6]: 58%

CC(C)C[C@H](NC(=O)[C@H](CC(C)C)NC(=O)[C@@H](CC(C)C)NC(=O)[C@H](N)CCCCN)C(=O)N[C@H](CCCCN)C(=O)N[C@H](CC(C)C)C(=O)N[C@H](CC(C)C)C(=O)N[C@@H](CC(C)C)C(=O)N[C@H](CCCCN)C(=O)N[C@@H](CC(C)C)C(=O)N[C@H](CC(C)C)C(=O)N[C@H](CCCCN)C(N)=O [Peptide 26, [D]-K^1,5,9,12L^2,6,7,11-K4L8] (H-[dK][dL]LL[dK][dL][dL]L[dK]L[dL][dK]-NH2)
Minimal Inhibitory Concentration B. megaterium (Bm11) [1]: 0.5 µM
Minimal Inhibitory Concentration E. coli (D21) [4]: 4 µM
% hemolysis at 100 μM [6]: 0%

CC(C)C[C@H](NC(=O)[C@H](CCCCN)NC(=O)[C@@H](CC(C)C)NC(=O)[C@@H](CC(C)C)NC(=O)[C@H](CC(C)C)NC(=O)[C@@H](N)CCCCN)C(=O)N[C@@H](CCCCN)C(=O)N[C@H](CC(C)C)C(=O)N[C@@H](CCCCN)C(=O)N[C@H](CC(C)C)C(=O)N[C@@H](CC(C)C)C(=O)N[C@@H](CCCCN)C(N)=O [Peptide 24, [D]-L^3,4,8,10-K5L7] (H-KL[dL][dL]KLK[dL]K[dL]LK-NH2)
Minimal Inhibitory Concentration B. megaterium (Bm11) [1]: 0.25 µM
Minimal Inhibitory Concentration B. subtilis (ATCC 6051) [2]: 2 µM
Minimal Inhibitory Concentration A. calcoaceticus (Ac11) [3]: 20 µM
Minimal Inhibitory Concentration E. coli (D21) 0% Serum ([4]; 0% Serum): 7 µM
Minimal Inhibitory Concentration E. coli (D21) 33% Serum ([4]; 33% pooled human serum): 7 µM
Minimal Inhibitory Concentration E. coli (D21) [4]: 7 µM
Minimal Inhibitory Concentration P. aeruginosa (ATCC-27853) 0% Serum ([7]; 0% Serum): 10 µM
Minimal Inhibitory Concentration P. aeruginosa (ATCC-27853) 33% Serum ([7]; 33% pooled human serum): 10 µM
Minimal Inhibitory Concentration P. aeruginosa (ATCC 27853) [7]: 10 µM
% hemolysis at 100 μM [6]: 0%

CC[C@H](C)[C@H](NC(=O)[C@H](CCCCN)NC(=O)[C@H]1CCCN1C(=O)[C@@H](NC(=O)[C@H](CC(C)C)NC(=O)[C@H](C)NC(=O)[C@H](Cc1ccccc1)NC(=O)[C@H](Cc1ccccc1)NC(=O)CNC(=O)[C@@H](N)CCCCN)[C@@H](C)CC)C(=O)N[C@H](C(=O)N[C@@H](CO)C(=O)N[C@@H](CO)C(=O)N1CCC[C@H]1C(=O)N[C@@H](CC(C)C)C(=O)N[C@@H](Cc1ccccc1)C(=O)N[C@@H](CCCCN)C(=O)N[C@H](C(=O)N[C@H](CC(C)C)C(=O)N[C@H](CC(C)C)C(=O)N[C@@H](CO)C(=O)N[C@@H](C)C(=O)N[C@H](C(=O)NCCN)C(C)C)[C@@H](C)O)[C@@H](C)CC [Peptide 4, K^1[D]P^7L^18L^19[1-22]-TApar]
Minimal Inhibitory Concentration B. megaterium (Bm11) [1]: 1.5 µM
Minimal Inhibitory Concentration A. calcoaceticus (Ac11) [3]: 7.5 µM
Minimal Inhibitory Concentration E. coli (D21) [4]: 7.5 µM
% hemolysis at 50 μM peptide [6]: 0%
